This note sets out measurements from paper PMC9096165 (Frontiers in Pharmacology, 2022).

One assay has as its system urinary bladder. It counts as in vivo. Conditions: preventive: 20 mg kg^−1 + 7 mg kg^−1 twice daily for 7 days; CYP rats. The method, then:
CYP was administered to the animals by the intraperitoneal (i.p.) route (5 ml kg^−1) at the dosage of 75 mg kg^−1 for three times every third day to elicit chronic bladder irritation, as previously described ([Vizzard et al., 1996]).
(§1) Animals pre-treated with the vehicle or a single high oral dose of DF2755A (20 mg kg^−1; 12 h before the first CYP administration) followed by repeated lower doses administration (7 mg kg^−1 twice daily for 7 days) during IC development were deeply anesthetized with isoflurane (4%) and then killed.
After killing, rat abdomen was opened through a midline incision, and bladder and proximal urethra were exposed. A catheter was inserted into the bladder through the urethra and a loose ligature was placed around the neck of the urinary bladder. Bladder was inflated with saline via the catheter to slightly distend the bladder and ligature was tightened to maintain proper distension. Bladder was then excised cutting above the insertion point of ureters, and therefore the bladder neck was not included into the bladder sample. Bladders were opened using scissors and, after gross macroscopic evaluation and weighing, each bladder was cut into two equal pieces (named B1 and B2) and weighted again individually. One piece (B1) was placed in Eppendorf, then snap-frozen in liquid nitrogen, and stored at −80°C until quantification using ELISA assay. The second piece (B2) was placed in 10% formalin and stored at room temperature. Then the same samples were placed in 70% ethanol, then processed in paraffin blocks, and then trimmed according to the longitudinal plane to ensure the correct analysis of all the bladder sample. Sections were stained with hematoxylin and eosin (HE), and slides were then digitalized using a Pathscan® Touch scanner in the bright field mode with a ×20 objective. For the microscopic observations of bladder inflammation, the following parameters were analyzed: bladder edema in scores (n = 10/group), bladder hemorrhage in scores (n = 10/group), urothelial loss in scores (n = 10/group), and total inflammatory score, which was calculated by adding all the individual lesion scores (n = 10/group).

A further assay deals with CXCL1/KC. The assay is described as follows: CXCL1 ELISA in bladder tissue. Conditions: preventive: 20 mg kg^−1 + 7 mg kg^−1 twice daily for 7 days, CYP rats. It counts as in vivo, rat. The procedure: as §1
After killing, rat abdomen was opened through a midline incision, and bladder and proximal urethra were exposed. A catheter was inserted into the bladder through the urethra and a loose ligature was placed around the neck of the urinary bladder. Bladder was inflated with saline via the catheter to slightly distend the bladder and ligature was tightened to maintain proper distension. Bladder was then excised cutting above the insertion point of ureters, and therefore the bladder neck was not included into the bladder sample. […] One piece (B1) was placed in Eppendorf, then snap-frozen in liquid nitrogen, and stored at −80°C until quantification using ELISA assay. […] For the microscopic observations of bladder inflammation, the following parameters were analyzed: bladder edema in scores (n = 10/group), bladder hemorrhage in scores (n = 10/group), urothelial loss in scores (n = 10/group), and total inflammatory score, which was calculated by adding all the individual lesion scores (n = 10/group). […]
A general note: In an ELISA, binding on a coated surface is turned into a signal by an enzyme label.

Molecules are shown by their SMILES.

As to `C[C@H](C(=O)[O-])c1ccc(Nc2nc(C(F)(F)F)cs2)cc1.[Na+]` [DF2755A, sodium (2S)-2-(4-{[4-(trifluoromethyl)-1,3-thiazol-2-yl]amino}phenyl)propanoate], the “histological evaluated parameters (edema, hemorrhage, urothelial loss, total inflammatory score), DF2755A- versus vehicle-treated rats” value with urinary bladder was “no significant difference”. In addition, in the assay on CXCL1/KC, the “bladder tissue expression of CXCL1/KC versus vehicle-treated rats” value is “strongly inhibited”.
